Test results: US20120190656A1, “METHODS FOR SELECTING […] TO IMPROVE HDL CHOLESTEROL AND TR[…]” (priority 2010, published 2012)

Legend:
HDL levels = assay: Population studies (Aging, FHS, collective sample), maximum likelihood models of HDL versus vitamin D intake and genotype; format: in vivo, human; settings: for increase of HDL: vitamin D deficient subjects, retrospective studies
Description: (§1) Study populations. Factors associated with cardiovascular disease were analyzed using samples from an Aging study population from Utah (“Aging” or “Utah” sample), which included approximately 2500 subjects in 98 Utah pedigrees with 2 or more probands such as, e.g., early stroke, coronary heart disease death, or hypertension. Details regarding subject selection have been previously published. See Williams et al., Recruitment of members of high-risk Utah pedigrees. Control Clin Trials 8: 105S-114S (1987); see also Table 2 below. Additional follow-up assessments were performed, where a validated dietary survey was administered, lipid profiles were determined, DNA was obtained, and standard cardiovascular risk factors were measured. See Hunt et al., Predictors of an increased risk of future hypertension in Utah. A screening analysis. Hypertension 17: 969-976 (1991). In some of the following examples results are described for subjects selected from the foregoing population, wherein samples were excluded if they lacked data relating to complete lipid profiles, genetic polymorphism data, or dietary survey data (n=1060 subjects in 96 families for HDL analysis, and n=1057 subjects in 70 families for triglyceride analysis).
(§2) A replication cohort, moreover, consisted of 5243 caucasian subjects from the NHLBI Family Heart Study (“FamHS” or “FHS” sample), which were not previously administered cholesterol modifying medications. Data for these subjects included lipid profiles and genetic analyses, as described. See Heard-Costa et al., NRXN3 is a novel locus for waist circumference: a genome-wide association study from the CHARGE Consortium. PLoS Genet 5: e1000539 (2009). These population-based families were gathered as part of four studies: the Framingham Heart Study, the Utah Family Tree Study, and ARIC centers in Minneapolis and Forsyth County, N.C. (n=2890 individuals in 504 families; see Table 2 for sample characteristics).
(§3) Both the Aging and FamHS samples were subdivided by season (see Table 2) when measuring both diet and lipids levels. Winter subsamples included data analyzed from November to March and consisted of 362 Aging subjects and 1006 FamHS subjects as shown below in Table 2. Because HDL and triglyceride levels are inversely correlated, vitamin D-triglyceride interactions were also measured from the foregoing samples, as further described below.
(§4) Dietary questionnaire and winter subsamples. Vitamin D intake was measured both in the Aging and FHS samples via a staff-administered semi-quantitative food frequency questionnaire with reproducibility and validity. See, e.g., Willett et al., Reproducibility and validity of a semiquantitative food frequency questionnaire. Am J Epidemiol 122: 51-65 (1985). […] See Jacques et al., Comparison of micronutrient intake measured by a dietary questionnaire and biochemical indicators of micronutrient status. Am J Clin Nutr 57: 182-189 (1993).
(§5) Accordingly, the Aging and FHS studies were subdivided into seasonal and lipid measurement cohorts, both of which occurred at the same clinic visit for the subject.
(§6) Study design and analysis for the aging and FHS samples. jPAP software (see Hasstedt et al., jPAP: Document-driven software for genetic analysis. Genet Epidemiol 29 (2005)), was employed for maximum likelihood analysis, correction of potential covariates, and to estimate heritability attributable to gene-environment interaction factors (interaction) measured as changes in estimated polygenic variance. Natural log transformed HDL was employed as the dependent variable, and all maximum likelihood models included age, sex, and log transformed BMI as baseline covariates. […] Analyses were performed separately for the entire Aging sample and the Aging winter subsample. The results were confirmed using the FHS sample population. […]

triglyceride levels = assay: Population studies (collective sample), maximum likelihood models of triglycerides versus vitamin D intake and genotype; format: in vivo, human
Description: as §1, §2, §3, §4, §5, §6

[1] = wintertime vitamin D intake raised from 50 IU to 550 IU, heterozygous G/C at rs3135506, model estimate
[2] = wintertime vitamin D intake raised from 50 IU to 550 IU, homozygous C/C at rs3135506, model estimate

**Q.** How did the “association of vitamin D alone with HDL levels” value (HDL levels; FHS study population, entire sample) turn out when `C=C1/C(=C\C=C2/CCC[C@]3(C)[C@@H]([C@H](C)CCCC(C)(C)O)CC[C@@H]23)C[C@@H](O)C[C@@H]1O` [vitamin D, 1,25-dihydroxyvitamin D3] was run?
**A.** not associated with an increase in patient HDL levels

**Q.** What about the “increase of HDL” value (HDL levels; heterozygous for a vitamin D sensitive allele) of the same compound?
**A.** 5%

**Q.** What about the “increase of HDL” value (HDL levels; homozygous for a vitamin D sensitive allele) of the same compound?
**A.** 10%

**Q.** And the “increase of HDL cholesterol” value (HDL levels; [1])?
**A.** approximately 10 mg/dL

**Q.** And the “increase of HDL cholesterol” value (HDL levels; [2])?
**A.** approximately 20 mg/dL

**Q.** And the “decrease of HDL cholesterol” value (HDL levels; wintertime vitamin D intake raised from 50 IU to 550 IU, homozygous G/G at rs3135506, model estimate)?
**A.** approximately 0.5 mg/dL

**Q.** And the “effect of vitamin D on triglyceride levels” value (triglyceride levels; collective sample, entire, patients with rs3135506 polymorphism, p=0.33)?
**A.** did not have a significant effect

**Q.** What about the “decrease of triglyceride levels” value (triglyceride levels; vitamin D deficient subjects, heterozygous for a vitamin D sensitive allele, retrospective studies) of the same compound?
**A.** 5%

**Q.** What about the “decrease of triglyceride levels” value (triglyceride levels; vitamin D deficient subjects, homozygous for a vitamin D sensitive allele, retrospective studies) of the same compound?
**A.** 10%

**Q.** And the “decrease of triglyceride levels” value (triglyceride levels; [1])?
**A.** 50 mg/dL

**Q.** And the “decrease of triglyceride levels” value (triglyceride levels; [2])?
**A.** 125 mg/dL

**Q.** What about the increase of triglycerides (triglyceride levels; wintertime vitamin D intake raised from 50 IU to 550 IU, homozygous G/G at rs3135506 (wild-type), model estimate) of the same compound?
**A.** 2 mg/dL
